Measured values taken from US8283355B2, “Pyrimidine derivatives as POSH and POSH-AP inhibitors” (Proteologics, Ltd., priority 2006, dated 2012).
Like-named read-outs stand apart in the source and are kept apart here.

Tests used:
[1] = Compound cytotoxicity in CEM-SS cells (MTS); type: cell-based; details: human, read-out: TC50 (concentration resulting in 50% cell death)
Protocol: (§1) For the HIV cytoprotection assay, CEM-SS cells were used and the viruses HIV-1IIIb, HIV-1RF, or HIV-2ROD.
(§2) Briefly, virus and cells were mixed in the presence of a test compounds and incubated for 6 days. […] Each assay plate contained the following controls: cell control wells (cells only), virus control wells (cells plus virus), compound toxicity control wells (cells plus compound only), compound calorimetric control wells (compound only), as well as the experimental wells (compound plus cells plus virus). Cytoprotection and compound cytotoxicity were assessed by MTS (CellTiter® 96 Reagent, Promega, Madison Wis.) dye reduction, and the IC50 (concentration inhibiting virus replication by 50%), TC50 (concentration resulting in 50% cell death) and a calculated TI (therapeutic index TC50/IC50) were obtained. Each assay included the HIV reverse transcriptase inhibitor AZT as a positive control.

[2] = system: HIV-1 p24 release from Jurkat cells; assay: Assay for virus release (HIV-1 p24 / VLP release from transfected Jurkat cells); type: cell-based; details: Human immunodeficiency virus 1, Jurkat, 24 h, read-out: IC50 in the virus release assay
Protocol: The POSH inhibitor Compound 1 was tested for its efficiency of viral budding and GAG expression and processing in treated and untreated Jurkat cells. The concentration of extracellular GAG p24 was used as an indication of viral budding.
Jurkat cells were incubated with Compound 1 (5 μM) for either 1 or 3 days. The next day, cells were transfected with the plasmid pNLenyl (2 μg/ml). Virus-like particle (VLP) release was determined one day after transfection as follows: the culture medium of virus-expressing cells was collected and centrifuged at 500×g for 10 minutes. The resulting supernatant was passed through a 0.45 μm-pore filter and the filtrate was centrifuged at 14,000×g for 2 hours at 4° C. The corresponding cells were washed three times with phosphate-buffered saline (PBS) and then solubilized by incubation on ice for 15 minutes in lysis buffer containing the following components: […] Hepes-NaOH, (pH 7.5), 150 mM NaCl, 1.5 mM MgCl2, 0.3% NP-40, 0.5% sodium deoxycholate, 1 mM EDTA, 1 mM EGTA and 1:200 dilution of protease inhibitor cocktail (EMD Biosciences, Inc.). The cell detergent extract was then centrifuged for 15 minutes at 14,000×g at 4° C. […] Enhanced Chemi-Luminescence (ECL) (Amersham Biosciences, Corp.) was then detected by fluorescence imaging (Typhoon Instrument, Amersham Biosciences, Corp.).

[3] = biological target: T1, GST tagged hPOSH (Homo sapiens, UniProt Q7Z6J0); assay: HTS TR-FRET assay of POSH autoubiquitination; type: biochemical; details: GST tagged hPOSH with E1, UbCH5c, ubiquitin-cryptate, read-out: IC50 (POSH autoubiquitination, in vitro assay)
T1 construct: a fused GST-RING subunit of POSH protein
T1 sequence (Q7Z6J0 12-53 limits assumed): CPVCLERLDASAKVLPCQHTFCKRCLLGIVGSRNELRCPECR
Protocol: In order to test compounds as inhibitors of POSH, a ubiquitin protein ligase (E3) containing a RING domain that mediates its own ubiquitination in a RING finger-dependent manner in the presence of E1 and E2, a HTS (high-throughput screening) homogeneous TR-FRET (Time-Resolved Fluorescence Resonance Energy Transfer) assay was conducted to monitor POSH autoubiquitination.
The assay employs an ubiquitin-activating enzyme (E1) and an ubiquitin-conjugating enzyme (E2), a fused GST-RING subunit of POSH protein and two fluorophore-conjugated detection reagents, namely anti-GSTXL665 and europium cryptate-labeled ubiquitin. This homogeneous assay is based on FRET between a Eu^3+ cryptate donor and a second fluorescent label (acceptor), allophycocyanin. Allophycocyanin, a 105 kDa phycobiliprotein, is crosslinked to ensure its stability.
The ubiquitination of POSH by ubiquitin cryptate and binding of the anti-GST tagged XL665 brings the fluorophores into close proximity allowing FRET reaction to occur.
Self-ubiquitination of hPOSH was determined by homogenous time-resolved fluorescence resonance energy transfer assay (TR-FRET). […]
where: S=actual fluorescence, B=Fluorescence obtained in parallel incubation without […], C=Fluorescence obtained in reaction without added compounds. […]

[4] = system: HIV-2ROD; assay: HIV cytoprotection assay, HIV-2ROD in CEM-SS cells (MTS); type: cell-based; details: for IC50: read-out: IC50 (concentration inhibiting virus replication by 50%)
Protocol: as §1, §2

[5] = system: HIV-1IIIB; assay: HIV cytoprotection assay, HIV-1IIIB in CEM-SS cells (MTS); type: cell-based; details: for IC50: read-out: IC50 (concentration inhibiting virus replication by 50%)
Protocol: as §1, §2

[6] = Human immunodeficiency virus 1, 144 h, HIV-1IIIB, CEM-SS cells, 6 days

Row | SMILES | CC50 at 6 days ([1]; Table 1 (HIV-1IIIB experiment)) | CC50 at 6 days ([1]; Table 2 (HIV-2ROD experiment)) | IC50 [2] | IC50 [3] | Antiviral Index (TI), TC50/IC50 ([4]; HIV-2ROD, CEM-SS cells) | IC50 ([4]; Human immunodeficiency virus 2, CEM-SS, 144 h) | Antiviral Index (TI), TC50/IC50 ([5]; HIV-1IIIB, CEM-SS cells) | IC50 ([5]; Human immunodeficiency virus 1, CEM-SS, 144 h) | IC50 ([4]; Human immunodeficiency virus 2, 144 h, HIV-2ROD, CEM-SS cells, 6 days) | IC50 [5, 6] | Effectiveness as anti-HIV-1IIIB agent compared to Compounds 1 and 2 ([5]; HIV-1IIIB, CEM-SS cells)
1 | Cc1cc(C)nc(NS(=O)(=O)c2ccc(NC(=O)/C(=C\c3cccs3)NC(=O)c3cccs3)cc2)n1 [Compound 1] | > 100 µM | > 300 µM | 48 µM | 2 µM | >5.68 | 52.8 µM | >2.07 | 48 µM |  |  | 
2 | O=C(Nc1ccc(S(=O)(=O)Nc2ncccn2)cc1)/C(=C\c1cccs1)NC(=O)c1cccs1 [Compound 2] | 114 µM | > 300 µM |  |  | >10.2 |  | 28.5 |  | 29.5 µM | 3.99 µM | 
3 | Cc1ccnc(NS(=O)(=O)c2ccc3c(c2)CCN3C(=O)/C(=C\c2cccs2)NC(=O)c2cccs2)n1 [Compound 5] | > 300 µM |  |  |  |  |  | >105 |  |  | 2.85 µM | far more effective
